Values quoted from earlier work in article PMC12299890 (Pharmaceuticals, 2025).
Where two headings read alike, the source gives them in different places.

Set-up: method as in PMID 27121673
Conditions: cited from earlier work

Structure (SMILES): O[C@H]1[C@H](O)[C@@H](O)[C@H](O)[C@@H](O)[C@@H]1O [SCI, scyllo-inositol]
- Time of maximum plasma concentration (after the last dose, 2000 mg two times a day for 10 days): 2.9 h
- AUC of SCI in CSF (day 1, oral 2000 mg two times a day): 49.4 µg·h/mL
- AUC of SCI in CSF (day 11, oral 2000 mg two times a day): 153.0 µg·h/mL
- Increase of brain concentration of SCI during the study (oral 2000 mg two times a day for 10 days): 58–76%
- Side effects reported (oral 2000 mg two times a day): No side effects
- Time of peak SCI plasma concentration (plasma, after first oral dose of 2000 mg twice a day): 3.8 h
